Test results published in US3989714A, “3-Phenylhydroindoles” (priority 1974, dated 1976).
Several values for one entry are separate records, joined by “and”; a condition that tells them apart may be missing. Identical values can stand only once. Counter-ions that a name gives are not always drawn.

Legend:
[1] = system: Rhinovirus 2 (HGP); assay: Antiviral activity tube method (Rightsel procedure), liquid media, HeLa cells; assay type: cell-based; details: for Antiviral: concentration at which active, Day 4: 20 TCID50 (Example 7)
Description: (§1) Compounds of the present invention show antiviral activity in concentrations of 50 to 100 γ/ml when tested in liquid media using the procedure of Rightsel (Univ. of Mich. Med. Bull. 24:222-234 (1958)) and on solid media using the Herrmann modification of the Dulbecco Technique (Proc. Nat. Acad. Sci., Wash. 38:747-752 (1952); Proc. Soc. Exp. Bio., N.Y., 103: 625-628 (1960)).
(§2) More particularly the protocol for the Rightsel procedure used is as follows:
(§3) ANTIVIRAL ACTIVITY TUBE METHOD
(§4) PURPOSE: The determination of toxicity and antiviral activity of
(§5) experimental compounds in normal and cancer cell lines
(§6) in vitro in tubes with liquid culture media.
(§7) MATERIALS: Cell Lines - cancer
(§8) HeLa - Human Carcinoma of the Cervix
(§9) Virus - Rhinovirus 2 (HGP)
Growth Medium - Basal Medium Eagle (BME) with Earle's
salts, containing 10 % fetal bovine serum,
penicillin (100 units/ml.) and
streptomycin (100 mcg./ml.)
Maintenance Medium - A 1:1 mixture of BME and Medium
199; contains 2 % fetal bovine serum.
Trypsin - (1-300) 0.25 % in Ca-free and Mg-free
Hanks' balanced salt solution (BSS)
Roller Bottles - Bellco
Tubes - Sterile 16 × 150 mm plastic screw top
(§10) Roller bottles are seeded with approximately 10^7 cells
(§11) in […] growth medium and rotated at 0.5 rpm on
(§12) the Bellco roller apparatus at 37° C until the cell
(§13) Trypsinization - Cells are resuspended in growth medium
(§14) at a concentration of […] HeLa cells/ml.
(§15) cell suspensions are gassed with CO2 to a pH of 6.8.
(§16) Sterile plastic tubes are seeded with 1.0 ml of cell
(§17) suspension and incubated in a stationary position for
(§18) two days (until cell sheet is confluent).
(§19) The compound is dissolved in distilled water at a maximum
(§20) concentration of 500 gamma/ml. Where necessary, NaOH,
(§21) HCl or ethanol is used to dissolve the material. The
(§22) pH of the final solution is adjusted as closely as
(§23) possible to pH 7.2. This stock solution is then
(§24) diluted with medium to contain appropriate concentrations
The virus is thawed rapidly at 37° C and diluted
in maintenance medium - to 10-^8 for titration and to an
estimated 10 - 100 Tissue Culture Infectious Dose50
PROCEDURE: The growth medium is decanted from the cell sheet in the
Adsorbed virus system: 0.1 ml of virus dilution is added
to each of the tubes and the tubes are rolled at 33°
(§25) for 1 hour. Cytotoxicity and control tubes are rolled
(§26) with just 0.1 ml of medium. After a 1 hour adsorption
period, 0.9 ml of the appropriate dilution of the test
compound is added to each of the tubes and the tubes
are returned to the roller apparatus.
Unadsorbed virus system: 0.1 ml of the diluted virus and
0.9 ml of the diluted test compound are added simultaneously
to a tube and the tubes rotated at 33° C.
(§27) RECORDING: HeLa cell cultures are read every day, starting on day 3
(§28) and readings are continued until culture controls have
(§29) shown a non-specific cytopathic effect (CPE) in about
(§30) 5-6 days. WI-38 cultures are read every other day,
starting with day 3, for 10-14 days.
(§31) on the degree and nature of the CPE. Viral CPE is
also recorded as 0 - 4+, depending on the percent of
(§32) the cell sheet showing virus growth. Four tubes are
(§33) used for each concentration of compound and for each
(§34) concentration of virus dilution, and the four CPE
(§35) ratings within each group are averaged.
To be considered active, a specific concentration of a test
compound must average 2 or more points below that of the
virus control. Actual TCID50 of virus used is
by method of Reed and Muench.

[2] = in vitro; assay type: cell-based, Human; details: human, hela cells
Description: as §1, §2, §3, §4, §5, §6, §7, §8, §10, §11, §12, §13, §14, §15, §16, §17, §18, §19, §20, §21, §22, §23, §24, §25, §26, §27, §28, §29, §30
(§36) Compound cytoxicity is recorded as 0 - 4+, depending
as §31, §32, §33, §34, §35

[3] = system: HeLa; assay: in vitro; assay type: cell-based, Human
Description: as §1, §2, §3, §4, §5, §6, §7, §8, §10, §11, §12, §13, §14, §15, §16, §17, §18, §19, §20, §21, §22, §23, §24, §25, §26, §27, §28, §29, §30, §36, §31, §32, §33, §34, §35

[4] = system: Rhinovirus 2 (HGP); assay: Antiviral Activity, Solid Media (Herrmann modification of the Dulbecco technique), plaque suppression by disc, HeLa cells; assay type: cell-based; details: Rhinovirus 2 HGP adsorbed, Day 5, 100 mcg disc, virus 66 PFU/ml (Example 4), 970 PFU/ml (Example 7)
Description: as §1
(§37) The procedure for the Herrmann modification used is as follows:
(§38) TEST NAME: Antiviral Activity, Solid Media
(§39) PURPOSE: The determination of toxicity and antiviral activity
(§40) of experimental compounds in normal and cancer cell
(§41) lines as measured by plaque suppression in solid media.
(§42) MATERIALS: Cell Line - Cancer
(§43) HeLa - Human carcinoma of the cervix
as §9
Growth Medium - Basal Medium Eagle (BME) containing 10 %
fetal bovine serum, penicillin (100 units/ml)
and streptomycin (100 mcg/ml).
Trypsin - (1-300) 0.25 % trypsin in Ca-free and Mg-free
Hanks' balanced salt solution (BSS).
(1) Rhinovirus: A 1:1 mixture of BME and
Medium 199. Contains 2 % fetal bovine serum
(FBS); 30 mM MgCl2; 0.3 % Tris; 30 gamma/ml
diethylaminoethyl (DEAE) dextran and 1 %
Wash Fluid - Phosphate-buffered saline (PBS) containing
Discs - Sterile Schleicher and Schuell 1/4"
penicillin assay discs.
Plates - Falcon plastic 60 × 15 mm dishes. […]
(§44) measured across the entire diameter (including disc).
The number of plaques on titration plates are counted to […]

[5] = system: HeLa; assay: Cytotoxicity, solid media (disc), zones of cytotoxicity; assay type: cell-based, Human; details: Day 5, 100 mcg disc
Description: as §1, §37, §38, §39, §40, §41, §42, §43, §10
in 250-300 ml of growth medium and rotated at 0.5 rpm on
as §12
Cells are removed from the glass surface with trypsin.
The cells are resuspended in medium to a concentration
of 2.0 × 10^5 /ml. Falcon plastic 60 × 15 mm
seeded with 5.0 ml of cell suspension and incubated for
48 hours at 37° C in Pyrex baking dishes sealed with
Water-soluble compounds are prepared in distilled water
with the aid of HCl or NaOH as necessary. Solutions
are Millipore filtered. Water insoluble compounds are
Sterile Schleicher and Schuell 1/4" penicillin assay […]
as §44

MNTC at 96 h [2] | MCC at 120 h [2] | Compound | Antiviral: concentration at which active, Day 4 ([1]; Tube, HeLa, Rhinovirus 2 HGP nonadsorbed, virus 31 TCID50 (Example 13), 100 TCID50 (Example 4), active = averages 2 or more points below virus control, hydrochloride) | Antiviral: concentration at which inactive, Day 5 ([1]; Tube, HeLa, Rhinovirus 2 HGP nonadsorbed, Day 5, virus 31 TCID50 (Example 13), 100 TCID50 (Example 4)) | Cytotoxicity: concentration at which toxic, Day 5 [3] | toxic effect on the cells [3] | Antiviral, disc ([4]; hydrochloride) | Cytotoxicity, disc [5] | antiviral activity after four days of incubation, liquid test ([1]; liquid test, four days of incubation) | Antiviral: concentration at which active, Day 4 ([1]; Tube, HeLa, Rhinovirus 2 HGP nonadsorbed, virus 31 TCID50 (Example 13), 100 TCID50 (Example 4), active = averages 2 or more points below virus control) | Antiviral: concentration at which active, Day 5 ([1]; Tube, HeLa, Rhinovirus 2 HGP nonadsorbed, Day 5, 20 TCID50, active = averages 2 or more points below virus control) | antiviral activity in the liquid system on 4th and 5th days ([1]; liquid system, both the 4th and 5th days of incubation) | toxic effect of undetermined origin, day 5 [3] | Antiviral, disc [4]
100 µg/mL |  | COc1ccc(C2CN(O)C3CCCCC23)cc1OC (stereo not shown) [Example 4, 3-(3,4-dimethoxyphenyl)hexahydro-1-hydroxyindoline hydrochloride] | 100 µg/mL and 50 µg/mL | 6.25 µg/mL | 100-12.5 | undetermined toxic effect on the cells was observed | inactive | Nontoxic |  |  |  |  |  | 
108 µg/mL |  | COc1ccccc1C1C[N+]([O-])=C2CCCCC21.Cl (stereo not shown) [Example 13, 3,3a,4,5,6,7-hexahydro-3-(o-methoxyphenyl)-2H-indole 1-oxide hydrochloride] |  |  | 108-10.5 | undetermined toxic effect on the cells was observed |  |  | showed antiviral activity |  |  |  |  | 
100 µg/mL | 100 µg/mL | COc1ccc(C2CN(O)C3(C)CCCCC23)cc1OC (stereo not shown) [Example 7, 3-(3,4-Dimethoxyphenyl)hexahydro-1-hydroxy-7a-methyl-indoline] |  |  |  |  |  | Nontoxic |  | 100 µg/mL and 50 µg/mL | 100 µg/mL and 50 µg/mL | showed activity at two concentrations | very slight toxic effect | inactive
